In EP1566447A1, “Glimepiride- and insulin-induced glycosylphosphatidylinositol-specific phospholipase C regulation” (priority 2004, dated 2005):
Entries after “also recorded” stand apart in the source; their conditions may differ.

Key:
[1] = target: T1, bovine AChE (Bos taurus, UniProt P23795); test: selectivity: AChE activity; assay type: biochemical; conditions: 50 µM
T1 construct: solubilized and partially purified bovine erythrocyte AChE; from tissue; host or cells: bovine erythrocytes
Protocol: (§1) Electroporation was performed as described in "Müller, G. et al., (2000) Mol. Cell. Biol. 20: 4708-4723". Lipolysis was determined as release of glycerol or fluorescent NBD-FA from prelabeled and isoproterenol-stimulated adipocytes as described in "Müller, G. et al., (2003) Biochimie 85: 1245-1256". Gce1 was detected by photolabeling of solubilized plasma membranes or hc/IcDIGs (10-50 µg protein) with 8-N3-[^32P]cAMP and subsequent phosphorimaging as described in "Müller, G. et al., (1994) Biochemistry 33: 12149-12159". 5'-Nuc, aP and AChE activities were measured according to "Eliakim, R. et al., (1990) Biochim. Biophys. Acta 1355: 293-302". Protein was determined using the BCA protein determination kit from Pierce (Rockford, IL) and BSA as calibration standard. SDS-PAGE was performed using precast gels (Novex, San Diego, CA; 10 % Bis-Tris resolving gel, morpholinopropanesulfonic acid-SDS running buffer). Lumiimages were evaluated on a Lumilmager using Lumilmager software (Roche Diagnostics). Phosphor- and fluorescence images were processed and quantified using the Storm 860 Phosphorlmager system (Molecular Dynamics, Gelsenkirchen, Germany). Figures were constructed using the Adobe Photoshop software (Adobe Systems, Mountain View, CA).
Fig. 3: Selectivity of GPI-2350. […]

[2] = test system: rat adipocytes; test: isoproterenol-induced lipolysis (glycerol release); assay type: cell-based
Protocol: as §1
Fig. 8: Effect of GPI-2350 on the glimepiride/insulin-induced metabolic activity. Isolated rat adipocytes were treated (5 min, 37°C) without or with GPI-2350 (Panel A, 50 µM; Panel B, increasing conc.; Panel C, 5 µM, 50 µM) and then incubated (15 min, 37°C) in the absence or presence of insulin (Ins, 10 nM) or glimepiride (Gli, 20 µM or increasing conc.) as indicated. The adipocytes were then assayed for glucose transport and isoproterenol-induced lipolysis. The activity is given relative to the absence of GPI-2350 in the control reaction (Panels A, basal) or in the insulin- and glimepiride-stimulated state (Panels B and C, set at 100). Means ± SD of at least 5 independent cell incubations with activity measurements in triplicate each are given.

T1 sequence (P23795 other isoform, or with tags, fused parts or gaps): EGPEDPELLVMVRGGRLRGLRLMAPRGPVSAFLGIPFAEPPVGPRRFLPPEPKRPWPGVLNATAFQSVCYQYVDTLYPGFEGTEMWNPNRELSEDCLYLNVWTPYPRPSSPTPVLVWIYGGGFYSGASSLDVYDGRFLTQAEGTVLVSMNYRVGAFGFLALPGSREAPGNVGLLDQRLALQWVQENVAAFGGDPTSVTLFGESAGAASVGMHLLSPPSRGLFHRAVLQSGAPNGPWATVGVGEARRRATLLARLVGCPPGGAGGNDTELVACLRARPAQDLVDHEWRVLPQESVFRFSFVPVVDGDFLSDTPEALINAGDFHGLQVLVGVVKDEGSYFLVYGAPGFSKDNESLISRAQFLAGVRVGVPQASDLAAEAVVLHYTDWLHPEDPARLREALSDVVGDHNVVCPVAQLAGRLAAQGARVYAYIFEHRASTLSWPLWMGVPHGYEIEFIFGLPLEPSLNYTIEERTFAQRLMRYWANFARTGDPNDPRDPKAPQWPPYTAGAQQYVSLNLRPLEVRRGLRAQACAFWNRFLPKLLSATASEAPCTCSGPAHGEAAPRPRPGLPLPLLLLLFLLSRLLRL

CCCCCCCCCCCCP1(=O)O[C@@H]2[C@H](O)[C@@H](O)[C@H](O)[C@@H](O)[C@@H]2O1 (mixture of isomers) [GPI-2350, myo-inositol-1,2-cyclo-dodecylphosphonic acid]
effect on AChE activity [1]: not significantly affected | effect on inhibition of lipolysis in response to glimepiride ([2]; 50 µM): almost complete blockade; also recorded: lower than control values | IC50 ([2]; Rattus norvegicus, Adipocyte): 2 to 5 µM | inhibition at 50 µM ([2]; Rattus norvegicus, Adipocyte, 50 µM, insulin 10 nM, read-out: reduction of insulin inhibition of isoproterenol-induced lipolysis): ≤ 33%
